Laboratory results taken from doi:10.1101/2023.03.24.534094v2 (biorxiv, 2023).
Like-named read-outs stand apart in the source and are kept apart here. Values belong to the compound of their own block, whether it stands above or below them.

What was measured:
Assay in all cases: biochemical
[1] = molecular target: T1, BMX (Homo sapiens, UniProt P51813)
T1 sequence (P51813 1-675): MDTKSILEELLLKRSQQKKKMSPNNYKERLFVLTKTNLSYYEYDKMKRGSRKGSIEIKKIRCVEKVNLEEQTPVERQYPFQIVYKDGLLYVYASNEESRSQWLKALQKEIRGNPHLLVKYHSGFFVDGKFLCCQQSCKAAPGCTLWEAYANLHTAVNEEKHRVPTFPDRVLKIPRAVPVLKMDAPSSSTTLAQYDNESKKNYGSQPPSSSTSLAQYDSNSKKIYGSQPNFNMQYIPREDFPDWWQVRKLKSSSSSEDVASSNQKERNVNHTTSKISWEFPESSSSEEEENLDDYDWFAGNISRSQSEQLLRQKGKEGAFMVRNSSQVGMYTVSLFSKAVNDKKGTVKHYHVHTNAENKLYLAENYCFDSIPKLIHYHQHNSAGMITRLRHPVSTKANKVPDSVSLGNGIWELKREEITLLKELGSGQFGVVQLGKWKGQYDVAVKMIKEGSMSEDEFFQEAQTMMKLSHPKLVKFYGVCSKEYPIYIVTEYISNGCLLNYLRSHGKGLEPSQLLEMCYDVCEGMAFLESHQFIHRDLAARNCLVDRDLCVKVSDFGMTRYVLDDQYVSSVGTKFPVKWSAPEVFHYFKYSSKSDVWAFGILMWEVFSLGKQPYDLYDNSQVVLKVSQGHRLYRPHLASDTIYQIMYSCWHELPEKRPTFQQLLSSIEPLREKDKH

[2] = molecular target: T2, BMPR2 (Homo sapiens, UniProt Q13873)
T2 sequence (Q13873 1-1038): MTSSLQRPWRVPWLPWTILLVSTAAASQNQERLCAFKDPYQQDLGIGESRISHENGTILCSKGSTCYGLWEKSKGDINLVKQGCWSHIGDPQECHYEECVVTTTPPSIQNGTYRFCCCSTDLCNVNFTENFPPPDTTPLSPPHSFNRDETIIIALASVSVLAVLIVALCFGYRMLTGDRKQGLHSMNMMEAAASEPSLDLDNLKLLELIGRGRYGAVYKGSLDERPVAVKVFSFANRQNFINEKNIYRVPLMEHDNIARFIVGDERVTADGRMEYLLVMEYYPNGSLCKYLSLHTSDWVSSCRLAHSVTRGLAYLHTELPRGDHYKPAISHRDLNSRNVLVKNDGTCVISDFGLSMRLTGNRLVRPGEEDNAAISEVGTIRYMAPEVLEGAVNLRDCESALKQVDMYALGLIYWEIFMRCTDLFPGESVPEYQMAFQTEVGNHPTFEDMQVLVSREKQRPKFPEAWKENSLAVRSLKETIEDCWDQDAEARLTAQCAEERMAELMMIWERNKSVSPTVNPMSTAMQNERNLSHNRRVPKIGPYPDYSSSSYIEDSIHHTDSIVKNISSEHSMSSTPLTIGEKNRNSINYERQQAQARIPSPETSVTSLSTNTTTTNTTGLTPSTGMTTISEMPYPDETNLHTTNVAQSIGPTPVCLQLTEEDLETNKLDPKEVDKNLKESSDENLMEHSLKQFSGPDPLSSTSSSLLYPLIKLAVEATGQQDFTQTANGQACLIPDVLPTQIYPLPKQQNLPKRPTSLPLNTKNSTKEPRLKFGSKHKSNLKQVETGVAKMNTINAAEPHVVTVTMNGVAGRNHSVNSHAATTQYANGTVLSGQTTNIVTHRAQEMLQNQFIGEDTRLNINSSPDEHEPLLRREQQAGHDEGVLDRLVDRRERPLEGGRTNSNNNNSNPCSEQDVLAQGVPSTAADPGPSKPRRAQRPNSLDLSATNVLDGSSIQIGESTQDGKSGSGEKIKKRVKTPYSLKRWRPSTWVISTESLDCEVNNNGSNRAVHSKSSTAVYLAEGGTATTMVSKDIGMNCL

[3] = molecular target: T3, Erk7 (Homo sapiens, UniProt Q8TD08)
T3 sequence (Q8TD08 1-544): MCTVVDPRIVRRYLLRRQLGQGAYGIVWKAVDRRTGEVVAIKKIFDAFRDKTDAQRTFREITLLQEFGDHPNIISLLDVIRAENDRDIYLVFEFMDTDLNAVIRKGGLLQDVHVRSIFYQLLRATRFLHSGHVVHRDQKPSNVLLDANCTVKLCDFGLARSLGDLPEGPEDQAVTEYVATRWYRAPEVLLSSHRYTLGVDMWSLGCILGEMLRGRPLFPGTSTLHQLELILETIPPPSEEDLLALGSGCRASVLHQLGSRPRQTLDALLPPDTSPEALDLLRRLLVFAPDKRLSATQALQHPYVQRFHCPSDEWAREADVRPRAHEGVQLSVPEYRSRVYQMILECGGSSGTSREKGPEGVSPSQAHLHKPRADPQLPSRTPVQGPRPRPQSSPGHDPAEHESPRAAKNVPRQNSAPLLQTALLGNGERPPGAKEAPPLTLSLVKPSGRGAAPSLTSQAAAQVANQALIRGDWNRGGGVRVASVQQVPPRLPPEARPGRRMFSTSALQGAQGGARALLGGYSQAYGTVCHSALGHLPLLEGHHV

[4] = molecular target: DAPK1 (Homo sapiens, UniProt P53355)
[5] = molecular target: ABL1 (Homo sapiens, UniProt P00519)
[6] = molecular target: NDR2 (Homo sapiens, UniProt Q9Y2H1)
[7] = molecular target: Erk2 (Homo sapiens, UniProt P28482)
[8] = molecular target: TAF1 (Homo sapiens, UniProt P21675)
[9] = molecular target: CK2a2 (Homo sapiens, UniProt P19784)

TAF1, sequence (P21675 whole entry): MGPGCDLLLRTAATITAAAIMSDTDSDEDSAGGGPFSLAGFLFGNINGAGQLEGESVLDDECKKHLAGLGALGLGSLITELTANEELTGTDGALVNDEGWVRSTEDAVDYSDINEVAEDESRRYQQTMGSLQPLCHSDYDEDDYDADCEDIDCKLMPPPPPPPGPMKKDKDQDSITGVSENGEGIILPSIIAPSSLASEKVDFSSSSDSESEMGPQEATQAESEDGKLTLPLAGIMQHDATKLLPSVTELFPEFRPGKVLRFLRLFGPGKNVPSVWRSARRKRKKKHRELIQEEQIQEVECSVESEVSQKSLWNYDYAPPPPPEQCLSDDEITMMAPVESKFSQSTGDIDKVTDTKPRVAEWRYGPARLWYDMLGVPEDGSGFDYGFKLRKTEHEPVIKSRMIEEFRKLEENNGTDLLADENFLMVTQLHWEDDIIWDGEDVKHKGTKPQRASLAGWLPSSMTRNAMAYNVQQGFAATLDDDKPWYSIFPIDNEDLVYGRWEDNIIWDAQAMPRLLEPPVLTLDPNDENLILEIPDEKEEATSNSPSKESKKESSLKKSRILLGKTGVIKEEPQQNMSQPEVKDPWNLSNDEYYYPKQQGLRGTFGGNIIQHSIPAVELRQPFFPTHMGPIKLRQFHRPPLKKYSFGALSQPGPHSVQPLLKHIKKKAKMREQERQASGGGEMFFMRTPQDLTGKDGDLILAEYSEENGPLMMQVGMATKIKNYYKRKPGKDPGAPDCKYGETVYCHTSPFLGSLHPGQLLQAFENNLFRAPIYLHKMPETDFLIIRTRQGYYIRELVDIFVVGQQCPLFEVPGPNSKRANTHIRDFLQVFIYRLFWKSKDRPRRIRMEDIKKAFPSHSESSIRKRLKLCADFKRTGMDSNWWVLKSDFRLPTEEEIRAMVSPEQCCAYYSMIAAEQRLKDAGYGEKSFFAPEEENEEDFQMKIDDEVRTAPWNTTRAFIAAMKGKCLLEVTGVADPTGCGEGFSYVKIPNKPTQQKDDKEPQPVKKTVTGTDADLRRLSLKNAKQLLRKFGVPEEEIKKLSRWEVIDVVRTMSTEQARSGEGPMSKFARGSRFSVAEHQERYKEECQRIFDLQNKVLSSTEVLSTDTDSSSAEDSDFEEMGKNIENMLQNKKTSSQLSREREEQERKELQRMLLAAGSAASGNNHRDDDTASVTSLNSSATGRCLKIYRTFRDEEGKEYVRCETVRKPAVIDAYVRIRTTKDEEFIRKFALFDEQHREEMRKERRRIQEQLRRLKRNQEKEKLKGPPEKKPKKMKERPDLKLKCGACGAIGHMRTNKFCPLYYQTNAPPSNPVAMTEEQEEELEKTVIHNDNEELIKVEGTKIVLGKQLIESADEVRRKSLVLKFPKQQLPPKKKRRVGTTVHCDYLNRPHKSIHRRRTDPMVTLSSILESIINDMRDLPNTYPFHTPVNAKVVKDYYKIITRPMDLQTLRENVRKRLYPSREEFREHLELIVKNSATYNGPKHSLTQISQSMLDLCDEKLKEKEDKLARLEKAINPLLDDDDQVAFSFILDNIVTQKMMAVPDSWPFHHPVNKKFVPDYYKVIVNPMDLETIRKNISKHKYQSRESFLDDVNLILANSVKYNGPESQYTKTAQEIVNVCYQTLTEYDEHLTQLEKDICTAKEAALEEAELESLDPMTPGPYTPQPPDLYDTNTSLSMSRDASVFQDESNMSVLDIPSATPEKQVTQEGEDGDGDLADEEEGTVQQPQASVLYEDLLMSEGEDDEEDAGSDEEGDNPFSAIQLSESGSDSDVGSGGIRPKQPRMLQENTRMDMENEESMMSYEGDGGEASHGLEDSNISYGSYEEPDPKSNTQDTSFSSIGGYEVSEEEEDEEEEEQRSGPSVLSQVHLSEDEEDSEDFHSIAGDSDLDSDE
Erk2, sequence (P28482 whole entry): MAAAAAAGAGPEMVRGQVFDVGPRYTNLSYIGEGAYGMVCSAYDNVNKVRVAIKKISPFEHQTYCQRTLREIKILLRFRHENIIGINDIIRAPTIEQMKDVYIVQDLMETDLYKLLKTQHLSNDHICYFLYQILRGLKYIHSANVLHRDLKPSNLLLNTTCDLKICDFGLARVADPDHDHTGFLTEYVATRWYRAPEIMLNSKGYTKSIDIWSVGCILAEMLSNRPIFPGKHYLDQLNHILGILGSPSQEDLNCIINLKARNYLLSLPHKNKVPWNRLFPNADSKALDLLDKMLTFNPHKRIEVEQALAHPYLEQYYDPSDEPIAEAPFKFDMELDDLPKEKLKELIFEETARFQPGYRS
ABL1, sequence (P00519 whole entry): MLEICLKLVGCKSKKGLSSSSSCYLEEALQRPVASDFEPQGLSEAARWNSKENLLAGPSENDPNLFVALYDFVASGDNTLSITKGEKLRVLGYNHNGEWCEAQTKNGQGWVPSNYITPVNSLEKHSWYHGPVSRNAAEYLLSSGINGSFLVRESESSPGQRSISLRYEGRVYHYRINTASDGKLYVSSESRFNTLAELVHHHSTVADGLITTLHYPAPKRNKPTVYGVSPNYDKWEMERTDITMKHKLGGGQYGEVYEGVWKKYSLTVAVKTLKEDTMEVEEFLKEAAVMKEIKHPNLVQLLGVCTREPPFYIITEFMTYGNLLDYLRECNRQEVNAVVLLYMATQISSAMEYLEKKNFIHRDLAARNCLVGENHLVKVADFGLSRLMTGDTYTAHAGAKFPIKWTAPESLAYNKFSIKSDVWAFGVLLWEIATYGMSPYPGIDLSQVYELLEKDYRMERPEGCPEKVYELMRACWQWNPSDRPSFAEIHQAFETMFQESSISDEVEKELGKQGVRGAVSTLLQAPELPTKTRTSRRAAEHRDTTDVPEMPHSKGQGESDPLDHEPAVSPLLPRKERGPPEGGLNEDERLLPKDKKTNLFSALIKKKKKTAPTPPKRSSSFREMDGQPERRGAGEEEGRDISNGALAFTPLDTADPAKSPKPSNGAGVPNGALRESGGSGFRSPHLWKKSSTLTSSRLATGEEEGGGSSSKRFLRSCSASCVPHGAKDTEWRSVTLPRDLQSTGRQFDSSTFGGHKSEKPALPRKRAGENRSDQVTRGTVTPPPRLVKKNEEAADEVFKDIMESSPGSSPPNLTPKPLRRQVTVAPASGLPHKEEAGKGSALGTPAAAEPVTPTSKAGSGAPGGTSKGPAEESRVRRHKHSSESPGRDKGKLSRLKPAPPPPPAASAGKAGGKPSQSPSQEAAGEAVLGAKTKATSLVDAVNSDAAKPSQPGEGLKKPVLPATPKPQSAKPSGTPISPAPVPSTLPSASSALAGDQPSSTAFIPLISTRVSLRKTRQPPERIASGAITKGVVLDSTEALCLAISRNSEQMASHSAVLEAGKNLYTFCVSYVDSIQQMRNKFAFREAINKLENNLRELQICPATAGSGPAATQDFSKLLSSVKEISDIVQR
DAPK1, sequence (P53355 whole entry): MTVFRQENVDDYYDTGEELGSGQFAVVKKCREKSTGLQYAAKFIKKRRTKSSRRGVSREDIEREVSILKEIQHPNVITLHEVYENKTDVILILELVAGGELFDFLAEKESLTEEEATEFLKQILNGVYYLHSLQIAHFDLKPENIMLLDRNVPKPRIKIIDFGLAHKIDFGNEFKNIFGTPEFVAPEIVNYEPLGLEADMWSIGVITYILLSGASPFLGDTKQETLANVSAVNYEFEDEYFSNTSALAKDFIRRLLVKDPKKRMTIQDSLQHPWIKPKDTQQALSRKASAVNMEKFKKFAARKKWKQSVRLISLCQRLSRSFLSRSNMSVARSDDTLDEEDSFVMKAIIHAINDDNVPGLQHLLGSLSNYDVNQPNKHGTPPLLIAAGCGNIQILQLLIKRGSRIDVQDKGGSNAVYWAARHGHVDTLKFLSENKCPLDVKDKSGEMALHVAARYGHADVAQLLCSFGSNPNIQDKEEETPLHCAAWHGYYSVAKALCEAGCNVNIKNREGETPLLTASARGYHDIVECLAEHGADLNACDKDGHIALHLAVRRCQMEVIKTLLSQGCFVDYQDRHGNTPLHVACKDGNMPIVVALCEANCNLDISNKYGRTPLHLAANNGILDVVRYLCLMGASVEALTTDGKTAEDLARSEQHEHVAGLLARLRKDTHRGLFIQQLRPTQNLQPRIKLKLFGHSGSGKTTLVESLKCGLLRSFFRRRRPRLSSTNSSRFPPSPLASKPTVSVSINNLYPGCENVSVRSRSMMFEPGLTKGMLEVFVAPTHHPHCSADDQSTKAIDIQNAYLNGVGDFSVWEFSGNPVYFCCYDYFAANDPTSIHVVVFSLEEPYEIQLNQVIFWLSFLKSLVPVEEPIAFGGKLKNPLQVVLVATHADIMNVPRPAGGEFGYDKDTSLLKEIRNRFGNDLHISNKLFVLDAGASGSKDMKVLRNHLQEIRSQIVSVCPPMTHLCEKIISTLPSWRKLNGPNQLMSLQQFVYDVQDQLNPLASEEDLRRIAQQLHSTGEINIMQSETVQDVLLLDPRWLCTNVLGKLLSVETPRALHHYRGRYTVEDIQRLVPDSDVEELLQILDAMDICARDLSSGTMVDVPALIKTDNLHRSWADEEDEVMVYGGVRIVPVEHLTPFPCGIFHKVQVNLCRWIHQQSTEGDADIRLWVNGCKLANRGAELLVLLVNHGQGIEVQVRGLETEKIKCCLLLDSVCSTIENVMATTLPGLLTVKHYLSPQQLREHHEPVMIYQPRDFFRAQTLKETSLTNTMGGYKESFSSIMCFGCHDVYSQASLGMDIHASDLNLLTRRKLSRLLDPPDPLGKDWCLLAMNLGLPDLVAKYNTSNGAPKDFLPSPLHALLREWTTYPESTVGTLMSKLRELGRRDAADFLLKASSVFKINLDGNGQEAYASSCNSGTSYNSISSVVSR

- ΔTm at 10 µM ([1]; read-out: dTm 10): 3.9 °C
- ΔTm at 10 µM ([2]; read-out: dTm 10): 0 °C
- ΔTm at 10 µM ([4]; read-out: dTm 10): 0.1 °C
- ΔTm at 10 µM ([5]; read-out: dTm 10): 6.2 °C
- ΔTm at 10 µM ([6]; read-out: dTm 10): 0.4 °C
- ΔTm at 10 µM ([7]; read-out: dTm 10): 0.1 °C
- ΔTm at 10 µM ([8]; read-out: dTm 10): -0.8 °C
- ΔTm at 10 µM ([9]; read-out: dTm 10): 0.2 °C
SMILES: CNc1ncc2cc(-c3cc(Cl)ccc3Br)c(=O)n(CCCCN)c2n1 [compound 10, 8-(4-Aminobutyl)-6-(2-bromo-5-chlorophenyl)-2-(methylamino)pyrido[2,3-d]pyrimidin-7(8H)-one]
- ΔTm at 10 µM ([3]; read-out: dTm 10): 0.3 °C

- ΔTm at 10 µM ([1]; read-out: dTm 8): 4 °C
- ΔTm at 10 µM ([2]; read-out: dTm 8): 0.2 °C
- ΔTm at 10 µM ([4]; read-out: dTm 8): 0.1 °C
- ΔTm at 10 µM ([5]; read-out: dTm 8): 6.2 °C
- ΔTm at 10 µM ([6]; read-out: dTm 8): 0.4 °C
- ΔTm at 10 µM ([7]; read-out: dTm 8): 0.1 °C
- ΔTm at 10 µM ([8]; read-out: dTm 8): -0.7 °C
- ΔTm at 10 µM ([9]; read-out: dTm 8): 0 °C
SMILES: CNc1ncc2cc(-c3cc(Cl)ccc3Cl)c(=O)n(CCCCN)c2n1 [compound 8, 8-(4-Aminobutyl)-6-(2,5-dichlorophenyl)-2-(methylamino)pyrido[2,3-d]pyrimidin-7(8H)-one]
- ΔTm at 10 µM ([3]; read-out: dTm 8): 0.3 °C

Further lines, the compound ahead of its results:

SMILES: CNc1ncc2cc(-c3cc(F)c(-c4cccc(C)n4)cc3F)c(=O)n(CCCCN)c2n1 [compound 12, 8-(4-Aminobutyl)-6-(2,5-difluoro-4-(6-methylpyridin-2-yl)phenyl)-2-(methylamino)pyrido[2,3-d]pyrimidin-7(8H)-one]
- ΔTm at 10 µM ([1]; read-out: dTm 12): 3.6 °C
- ΔTm at 10 µM ([2]; read-out: dTm 12): -0.2 °C
- ΔTm at 10 µM ([3]; read-out: dTm 12): -1.3 °C
- ΔTm at 10 µM ([4]; read-out: dTm 12): -0.9 °C
- ΔTm at 10 µM ([5]; read-out: dTm 12): 3.5 °C
- ΔTm at 10 µM ([6]; read-out: dTm 12): 5.2 °C
- ΔTm at 10 µM ([7]; read-out: dTm 12): -1.8 °C
- ΔTm at 10 µM ([8]; read-out: dTm 12): 0.4 °C
- ΔTm at 10 µM ([9]; read-out: dTm 12): -1 °C

SMILES: CNc1ncc2cc(-c3cc(Br)ccc3Br)c(=O)n(CCCCN)c2n1 [compound 11, 8-(4-Aminobutyl)-6-(2,5-dibromophenyl)-2-(methylamino)pyrido[2,3-d]pyrimidin-7(8H)-one]
- ΔTm at 10 µM ([1]; read-out: dTm 11): 4.2 °C
- ΔTm at 10 µM ([2]; read-out: dTm 11): 0 °C
- ΔTm at 10 µM ([3]; read-out: dTm 11): 0.3 °C
- ΔTm at 10 µM ([4]; read-out: dTm 11): 0.2 °C
- ΔTm at 10 µM ([5]; read-out: dTm 11): 4.8 °C
- ΔTm at 10 µM ([6]; read-out: dTm 11): 0.5 °C
- ΔTm at 10 µM ([7]; read-out: dTm 11): 0.1 °C
- ΔTm at 10 µM ([8]; read-out: dTm 11): -0.8 °C
- ΔTm at 10 µM ([9]; read-out: dTm 11): 0.1 °C

SMILES: CNc1ncc2cc(-c3cc(C(F)(F)F)ccc3Cl)c(=O)n(CCCCN)c2n1 [compound 9, 8-(4-Aminobutyl)-6-(2-chloro-5-(trifluoromethyl)phenyl)-2-(methylamino)pyrido[2,3-d]pyrimidin-7(8H)-one]
- ΔTm at 10 µM ([1]; read-out: dTm 9): 3.2 °C
- ΔTm at 10 µM ([2]; read-out: dTm 9): 0.1 °C
- ΔTm at 10 µM ([3]; read-out: dTm 9): 0.1 °C
- ΔTm at 10 µM ([4]; read-out: dTm 9): 0.1 °C
- ΔTm at 10 µM ([5]; read-out: dTm 9): 2.5 °C
- ΔTm at 10 µM ([6]; read-out: dTm 9): 0.1 °C
- ΔTm at 10 µM ([7]; read-out: dTm 9): 0 °C
- ΔTm at 10 µM ([8]; read-out: dTm 9): -0.7 °C
- ΔTm at 10 µM ([9]; read-out: dTm 9): 0 °C
